Assays:
[1] = biological target: T1, pY705-STAT3 in PBMC (Homo sapiens, UniProt P40763); experiment: MSD-pSTAT-PBMC Assay (pSTAT3, IL-6 stimulated); format: cell-based; conditions: PBMC, compound 3 hrs, then 10 ng/mL IL-6 for 10 min; Table 1114; read-out: pSTAT3
T1 construct: Cryopreserved Peripheral Blood Mononuclear Cells (PBMC) are from AllCells; host or cells: cryopreserved PBMC
Outline: (§1)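 Cells are preincubated with compound for 3 hrs, then stimulated for 10 min, IL-4 at 1 ng/mL driving STAT6 phosphorylation and IL-6 at 10 ng/mL driving STAT3. Phospho-STAT in lysates is quantified by MSD immunoassay, and IC50 is fitted after subtracting unstimulated wells.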

[2] = biological target: T2, pY641-STAT6 in PBMC (Homo sapiens, UniProt P42226); experiment: MSD-pSTAT-PBMC Assay (pSTAT6, IL-4 stimulated); format: cell-based; conditions: PBMC, compound 3 hrs, then 1 ng/mL IL-4 for 10 min; Table 1114; read-out: pSTAT6
T2 construct: Cryopreserved Peripheral Blood Mononuclear Cells (PBMC) are from AllCells; host or cells: cryopreserved PBMC
T2 sequence (P42226 1-847): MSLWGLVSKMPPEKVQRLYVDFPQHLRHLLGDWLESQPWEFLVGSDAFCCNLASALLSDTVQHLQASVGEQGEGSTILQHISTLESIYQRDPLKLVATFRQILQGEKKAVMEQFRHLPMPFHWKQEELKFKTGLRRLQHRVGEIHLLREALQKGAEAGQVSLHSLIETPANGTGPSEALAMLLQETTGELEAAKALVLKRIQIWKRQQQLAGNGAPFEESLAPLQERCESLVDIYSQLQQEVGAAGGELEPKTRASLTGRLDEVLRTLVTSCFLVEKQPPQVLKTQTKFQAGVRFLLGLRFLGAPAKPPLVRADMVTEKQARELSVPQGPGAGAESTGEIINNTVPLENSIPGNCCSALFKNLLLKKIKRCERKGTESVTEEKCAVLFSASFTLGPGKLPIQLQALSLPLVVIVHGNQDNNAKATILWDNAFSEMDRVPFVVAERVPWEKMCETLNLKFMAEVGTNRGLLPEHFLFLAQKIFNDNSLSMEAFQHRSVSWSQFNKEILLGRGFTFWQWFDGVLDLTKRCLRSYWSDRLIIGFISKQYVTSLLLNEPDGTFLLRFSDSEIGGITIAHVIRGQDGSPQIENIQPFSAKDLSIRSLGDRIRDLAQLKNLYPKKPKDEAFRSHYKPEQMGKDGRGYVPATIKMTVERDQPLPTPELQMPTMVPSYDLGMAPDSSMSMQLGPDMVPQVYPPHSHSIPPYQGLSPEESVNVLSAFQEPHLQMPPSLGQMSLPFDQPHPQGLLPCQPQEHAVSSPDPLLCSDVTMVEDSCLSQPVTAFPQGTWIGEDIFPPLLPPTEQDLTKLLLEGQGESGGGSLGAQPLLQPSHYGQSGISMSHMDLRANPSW
Outline: as §1

T1 sequence (P40763 whole entry): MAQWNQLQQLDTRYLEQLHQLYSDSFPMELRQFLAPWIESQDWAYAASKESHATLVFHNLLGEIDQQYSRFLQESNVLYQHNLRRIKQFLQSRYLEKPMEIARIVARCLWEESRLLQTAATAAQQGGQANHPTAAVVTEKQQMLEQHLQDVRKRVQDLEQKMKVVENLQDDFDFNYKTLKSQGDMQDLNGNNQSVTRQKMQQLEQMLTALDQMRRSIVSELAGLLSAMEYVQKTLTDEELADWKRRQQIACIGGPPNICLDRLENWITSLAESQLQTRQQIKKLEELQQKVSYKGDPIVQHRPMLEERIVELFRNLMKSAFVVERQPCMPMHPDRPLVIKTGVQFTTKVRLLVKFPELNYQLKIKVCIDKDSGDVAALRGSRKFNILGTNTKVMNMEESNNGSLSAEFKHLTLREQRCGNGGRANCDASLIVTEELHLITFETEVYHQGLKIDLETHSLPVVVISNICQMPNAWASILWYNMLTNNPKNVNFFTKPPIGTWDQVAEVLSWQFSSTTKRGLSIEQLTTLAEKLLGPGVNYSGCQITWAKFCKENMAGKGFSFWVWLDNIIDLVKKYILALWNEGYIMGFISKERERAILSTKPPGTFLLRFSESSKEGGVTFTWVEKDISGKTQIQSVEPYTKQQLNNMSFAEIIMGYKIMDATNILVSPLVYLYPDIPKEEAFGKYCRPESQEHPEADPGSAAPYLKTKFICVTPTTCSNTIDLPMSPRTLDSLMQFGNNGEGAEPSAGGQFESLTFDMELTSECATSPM

Structure (SMILES)	IC50 [1] [nM]	IC50 [2] [nM]
CC(C)CC(=O)SCCOP(=O)(OCCSC(=O)CC(C)C)C(F)(F)c1ccc2ccc(C(=O)N[C@H]3CCCC[C@H]4CC[C@@H](C(=O)N5CCC(c6cc[nH]c(=O)c6)C5)N4C3=O)cc2c1 (stereo partly drawn) [Compound 160, S,S′-((((difluoro(7-(((3S,6S,10aS)-5-oxo-3-(3-(2-oxo-1,2-dihydropyridin-4-yl)pyrrolidine-1-carbonyl)decahydropyrrolo [1,2-a]azocin-6-yl)carbamoyl)naphthalen-2-yl)methyl)phosphoryl)bis(oxy))bis(ethane-2,1-diyl)) bis(3-methylbutane thioate)]	< 100	< 100
CC(C)CC(=O)SCCOP(=O)(OCCSC(=O)CC(C)C)C(F)(F)c1ccc2sc(C(=O)N[C@H]3CCCC(C)[C@H]4CC[C@@H](C(=O)N5CC(c6cccnc6)C5)N4C3=O)cc2c1 (stereo partly drawn) [Compound 161, S,S′-((((difluoro(2-(((3S,6S,10aR)-10-methyl-5-oxo-3-(3-(pyridin-3-yl)azetidine-1-carbonyl)decahydropyrrolo [1,2-a]azocin-6-yl)carbamoyl)benzo[b]thiophen-5-yl)methyl)phosphoryl)bis(oxy))bis(ethane-2,1-diyl)) bis(3-methylbutane thioate)]	< 100	> 3000
CC(C)(C)C(=O)OCOP(=O)(OCOC(=O)C(C)(C)C)C(F)(F)c1ccc2sc(C(=O)NC3CCCCC4CCCC(C(=O)N5CC(C#N)C(c6ccccc6)C5)N4C3=O)cc2c1 [Compound 169, ((((2-(((4S,7S,11aS)-4-((rel- trans)-3-cyano-4-phenylpyrrolidine-1-carbonyl)-6-oxodecahydro-2H-pyrido[1,2-a]azocin-7-yl)carbamoyl)benzo[b]thiophen-5-yl)difluoromethyl)phosphroyl)bis(oxy)) bis(methylene) bis(2,2-dimethylpropaneoate)]	100 to 1000	< 100
CC(C)(C)C(=O)OCOP(=O)(OCOC(=O)C(C)(C)C)C(F)(F)c1ccc2sc(C(=O)N[C@H]3CCC[C@H]4CCC[C@@H](C(=O)N5CC(C#N)C(c6ccccc6)C5)N4C3=O)cc2c1 (stereo partly drawn) [Compound 170, ((((2-(((4S,7S,10aS)-4-(rel-(trans)-3-cyano-4-phenylpyrrolidine-1-carbonyl)-6-oxodecahydropyrido [1,2-a]azepin-7-yl)carbamoyl)benzo[b]thiophen-5-yl)difluoromethyl)phosphoryl)bis(oxy)) bis(methylene) bis(2,2-dimethylpropanoate)]	100 to 1000	< 100
CC(C)(C)C(=O)OCOP(=O)(OCOC(=O)C(C)(C)C)C(F)(F)c1ccc2sc(C(=O)N[C@H]3CCCC[C@H]4CCC[C@@H](C(=O)N5CC(n6ccnc6)C5)N4C3=O)cc2c1 [Compound 171, ((((2-(((4S,7S,11aS)-4-(3-(1H-imidazol-1-yl)azetidine-1-carbonyl)-6-oxodecahydro-2H-pyrido[1,2-a]azocin-7-yl)carbamoyl)benzo[b]thiophen-5-yl)difluoromethyl)phosphoryl)bis(oxy)) bis(methylene) bis(2,2-dimethylpropanoate)]	> 3000	> 3000
CC(C)(C)C(=O)OCOP(=O)(OCOC(=O)C(C)(C)C)C(F)(F)c1ccc2sc(C(=O)N[C@H]3CCCC[C@H]4CCC[C@@H](C(=O)N5CC(C(=O)N6CCOCC6)C5)N4C3=O)cc2c1 [Compound 172, (((difluoro(2-(((4S,7S,11aS)-4-(3-(morpholine-4-carbonyl)azetidine-1-carbonyl)-6-oxodecahydro-2H-pyrido[1,2-a]azocin-7-yl)carbamoyl)benzo[b]thiophen-5-yl)methyl)phosphoryl)bis(oxy))bis(methylene) bis(2,2-dimethylpropanoate)]	< 100	1000 to 3000
CC(C)(C)C(=O)OCOP(=O)(OCOC(=O)C(C)(C)C)C(F)(F)c1ccc2sc(C(=O)N[C@H]3CCC[C@H]4CCC[C@@H](C(=O)N5CC(n6ccnc6)C5)N4C3=O)cc2c1 [Compound 173, ((((2-(((4S,7S,10aS)-4-(3-(1H-imidazol-1-yl)azetidine-1-carbonyl)-6-oxodecahydropyrido [1,2-a]azepin-7-yl)carbamoyl)benzo[b]thiophen-5-yl)difluoromethyl)phosphoryl)bis(oxy)) bis(methylene) bis(2,2-dimethylpropanoate)]	100 to 1000	> 3000
CC(C)(C)C(=O)OCOP(=O)(OCOC(=O)C(C)(C)C)C(F)(F)c1ccc2sc(C(=O)N[C@H]3CCCC[C@H]4CC[C@@H](C(=O)N5CC(F)(c6ccccc6)C5)N4C3=O)cc2c1 [Compound 174, (((difluoro(2-(((3S,6S,10aS)-3-(3-fluoro-3-phenylazetidine-1-carbonyl)-5-oxodecahydropyrrolo [1,2-a]azocin-6-yl)carbamoyl)benzo[b]thiophen-5-yl)methyl)phosphoryl)bis(oxy)) bis(methylene) bis(2,2-dimethylpropanoate)]	< 100	100 to 1000
CC(C)CC(=O)SCCOP(=O)(OCCSC(=O)CC(C)C)C(F)(F)c1ccc2sc(C(=O)N[C@H]3CCC[C@H]4CC[C@@H](C(=O)N5CC(c6cccnc6)C5)N4C3=O)cc2c1 [Compound 177, S,S′-((((difluoro(2-(((3S,6S,9aS)-5-oxo-3-(3-(pyridin-3-yl)azetidine-1-carbonyl)octahydro-1H-pyrrolo[1,2-a]azepin-6-yl)carbamoyl)benzo[b]thiophen-5-yl)methyl)phosphoryl)bis(oxy))bis(ethane-2,1-diyl)) bis(3-methylbutane thioate)]	< 100	1000 to 3000
CCCC(=O)SCCOP(=O)(OCCSC(=O)CCC)C(F)(F)c1ccc2sc(C(=O)NC3CCCC4CCC(C(=O)N5CC(c6cccnc6)C5)N4C3=O)cc2c1 [Compound 179, S,S′-((((difluoro(2-(((3S,6S,9aS)-5-oxo-3-(3-(pyridin-3-yl)azetidine-1-carbonyl)octahydro-1H-pyrrolo[1,2-a]azepin-6-yl)carbamoyl)benzo[b]thiophen-5-yl)methyl)phosphoryl)bis(oxy))bis(ethane-2,1-diyl)) dibutanethioate]	< 100	1000 to 3000
CC(C)OC(=O)OCOP(=O)(OCOC(=O)OC(C)C)C(F)(F)c1ccc2sc(C(=O)N[C@H]3CCC[C@H]4CC[C@@H](C(=O)N5CC(c6cccnc6)C5)N4C3=O)cc2c1 [Compound 180, (((difluoro(2-(((3S,6S,9aS)-5-oxo-3-(3-(pyridin-3-yl)azetidine-1-carbonyl)octahydro-1H-pyrrolo[1,2-a]azepin-6-yl)carbamoyl)benzo[b]thiophen-5-yl)methyl)phosphoryl)bis(oxy)) bis(methylene) diisopropyl bis(carbonate)]	< 100	> 3000
CC(C)(C)C(=O)SCCOP(=O)(OCCSC(=O)C(C)(C)C)C(F)(F)c1ccc2sc(C(=O)N[C@H]3CCCC[C@H]4CC[C@@H](C(=O)N5CC(c6cccnc6)C5)N4C3=O)cc2c1 [Compound 181, S,S′-((((difluoro(2-(((3S,6S,10aS)-5-oxo-3-(3-(pyridin-3-yl)azetidine-1-carbonyl)decahydro-pyrrolo[1,2-a]azocin-6-yl)carbamoyl)benzo[b]thiophen-5-yl)methyl)phosphoryl)bis(oxy))bis(ethane-2,1-diyl)) bis(2,2-dimethylpropanethioate)]	< 100	> 3000
CC(C)(C)C(=O)SCCOP(=O)(OCCSC(=O)C(C)(C)C)C(F)(F)c1ccc2sc(C(=O)N[C@H]3CCCC[C@H]4CC[C@@H](C(=O)N5CC(c6c[nH]cn6)C5)N4C3=O)cc2c1 [Compound 182, S,S′-(((3S,6S,10aS)-3-(3-(1H-imidazol-4-yl)azetidine-1-carbonyl)-5-oxodecahydropyrrolo [1,2-a]azocin-6-yl)carbamoyl)benzo[b] thiophen-5-yl) difluoromethyl) phosphoryl)bis(oxy)) bis(ethane-2,1-diyl)) bis(2,2-dimethylpropanethioate)]	< 100	1000 to 3000

From patent US20250215029A1 (Recludix Pharma, Inc., priority 2022, published 2025)
